# Assay results: US5629430A, “Trifluoromethylpyrroloindolecarboxylic acid ester and process for production thereof” (Kyorin Pharmaceutical Co., Ltd., priority 1992, dated 1997)
# Tested on: P388 mouse leukemia cells
# Assay: Activity against tumor cell growth (P388, MTT, 72 h)
# Format: cell-based
# Details: P388 mouse leukemia cells, 72 h, 37° C., MTT; read-out: IC50 (50% growth inhibition concentration)
# Description: Using a culture medium RPMI1640 supplemented with 10% inactivated bovine fetal serum, 2 mM glutamine, 100 μ/ml kanamycin sulfate, and 5 μM 2-hydroxyethyldisulfide (This culture medium is hereinafter referred to simply as "culture medium"), P388 mouse leukemia cells were diluted to a concentration of 1.5×10^5 cells/ml in the culture medium, and were placed in each well of 96-well multiplate in 60 μl portions. Separately, the test compound was dissolved in dimethylsulfoxide and was adequately diluted with the culture medium. The diluted solution containing test compound was added to the wells of the above plate respectively in 60 μl portions. Then the cells were incubated in a CO2 -incubator (5% CO2, 37° C.) for 72 hours.
# The surviving cell numbers were measured according to the Mosmann's method (J. Immunol. Meth., 65 55-63, 1983) as follows. A 2.5 mg/ml solution of MTT (3-[4,5-dimethylthiazol-2-yl]-2,5-diphenyltetrazolium bromide) in Dulbecco's phosphate buffer solution (PBS) was prepared and added to each of the wells by 20 μl. The cells were further incubated for 3 hours. A 150 μl portion of 0.04N hydrochloric acid-isopropanol solution was added to each of the wells, and MTT-formazane formed was allowed to dissolve by pipetting. The absorbance of the solutions was measured at 540 nm taking the no-cell-containing [solution as the background. The 50% growth inhibition concentration (ICs50) was calculated from ratio of the absorbances of the treated samples to the absorbance of the no-medicine-treated sample, and from the concentration of the test compound.
row,SMILES,IC50 [ng/mL]
1,"COC(=O)c1c(C(F)(F)F)[nH]c2c(O)cc3c(c12)C(CCl)CN3C(=O)c1cc2cc(NC(=O)c3cc4ccccc4[nH]3)ccc2[nH]1 (centres unmarked) [Example 9, Methyl 1-chloromethyl-5-hydroxy-3-[5-[(1H-indol-2-ylcarbonyl)amino]-1H-indol-2-ylcarbonyl]-7-trifluoromethyl-1,2,3,6-tetrahydropyrrolo[3,2-e]indole-8-carboxylate]",0.76
2,"COC(=O)c1c(C(F)(F)F)[nH]c2c1C13CC1CN(C(=O)c1cc4cc(NC(=O)c5cc6cccc(OC)c6o5)ccc4[nH]1)C3=CC2=O (centres unmarked) [Example 25, Methyl 2-[5-[(7-methoxybenzofuran-2-ylcarbonyl)amino]-1H-indol-2-ylcarbonyl]-6-trifluoromethyl-1,2,8,8a-tetrahydrocyclopropa[c]pyrrolo[3,2-e]indole-4 (5H)-one-7-carboxylate]",0.63
3,"COC(=O)c1c(C(F)(F)F)[nH]c2c1C13CC1CN(C(=O)c1cc4cc(NC(=O)c5ccc6ccccc6c5)ccc4[nH]1)C3=CC2=O (centres unmarked) [Example 29, Methyl 3-[5-[(naphthalene-3-ylcarbonyl)amino]1H-indol-2-ylcarbonyl]-6-trifluoromethyl-1,2,8,8a-tetrahydrocyclopropa[c]pyrrolo[3,2-e]indol-4 (5H)-one-7-carboxylate]",1.2
4,"COC(=O)c1c(C(F)(F)F)[nH]c2c1C13CC1CN(C(=O)c1cc4cc(NC(=O)c5cnc6ccccc6c5)ccc4[nH]1)C3=CC2=O (centres unmarked) [Example 30, Methyl 3-[5-[(quinoline-3-ylcarbonyl)amino]-1H-indol-2-ylcarbonyl]-6-trifluoromethyl-1,2,8,8a-tetrahydrocyclopropa[c]pyrrolo[3,2-e]indol-4 (5H)-one-7-carboxylate]",0.22
5,"COC(=O)c1c(C(F)(F)F)[nH]c2c1C13CC1CN(C(=O)c1cc4cc(NC(=O)c5cc6c(cn5)[nH]c5ccccc56)ccc4[nH]1)C3=CC2=O (centres unmarked) [Example 33, Methyl 2-[5-[(9H-pyrido[3,4-b]indol-3-ylcarbonyl)amino]-1H-indol-2-ylcarbonyl]-6-trifluoromethyl-1,2,8,8a-tetrahydrocyclopropa[c]pyrrolo[3,2-e]indol-4 (5H)-one-7-carboxylate]",0.17
6,"COC(=O)c1c(C(F)(F)F)[nH]c2c(O)cc3c(c12)C(CBr)CN3C(=O)c1cc2cc(NC(=O)c3cc4cc(OC)c(OC)c(OC)c4[nH]3)ccc2[nH]1 (centres unmarked) [Example 39, Methyl 1-bromomethyl-5-hydroxy-7-trifluoromethyl-3-[5[(5,6,7-trimethoxy1H-indol-2-ylcarbonyl)amino]-1H-indol-2-ylcarbonyl]-1,2,3,6-tetrahydropyrrolo[3,2-e]indole-8-carboxylate]",0.2
7,"COC(=O)c1c(C(F)(F)F)[nH]c2c(O)cc3c(c12)C(CBr)CN3C(=O)c1cc2cc(NC(=O)c3cc4c(OC)c(OC)c(OC)cc4[nH]3)ccc2[nH]1 (centres unmarked) [Example 40, Methyl 1-bromomethyl-5-hydroxy-7-trifluoromethyl-3-[5-[(4,5,6-trimethoxy1H-indol-2-ylcarbonyl)amino]-1H-indol-2-ylcarbonyl]-1,2,3,6-tetrahydropyrrolo[3,2-e]indole-8-carboxylate]",0.08
8,"COC(=O)c1c(C(F)(F)F)[nH]c2c(O)cc3c(c12)C(CBr)CN3C(=O)c1cc2cc(NC(=O)c3ccc4ccccc4c3)ccc2[nH]1 (centres unmarked) [Example 41, Methyl 1-bromomethyl-5-hydroxy-3-[5-[(naphthalene-3-ylcarbonyl)amino]-1H-indol-2-ylcarbonyl]-7-trifluoromethyl-1,2,3,6-tetrahydropyrrolo[3,2-e]indole-8-carboxylate]",1.6
9,"COC(=O)c1c(C(F)(F)F)[nH]c2c(O)cc3c(c12)C(CBr)CN3C(=O)c1cc2cc(NC(=O)c3cnc4ccccc4c3)ccc2[nH]1 (centres unmarked) [Example 42, Methyl 1-bromomethyl-5-hydroxy-3-[5-[(quinoline-3-ylcarbonyl)amino]-1H-indol-2-ylcarbonyl]-7-trifluoromethyl-1,2,3,6-tetrahydropyrrolo[3,2-e]indole-8-carboxylate]",0.13
10,"COC(=O)c1c(C(F)(F)F)[nH]c2c(O)cc3c(c12)C(CBr)CN3C(=O)c1cc2cc(NC(=O)c3cc4c(OC)c(OC)c(OC)cc4cn3)ccc2[nH]1 (centres unmarked) [Example 44, Methyl 1-bromomethyl-5-hydroxy-7-trifluoromethyl-3-[5-[(5,6,7-trimethoxyisoquinolin-3-ylcarbonyl)amino]-1H-indol-2-ylcarbonyl]-1,2,3,6-tetrahydropyrrolo[3,2-e]indole-8-carboxylate]",0.07
11,"COC(=O)c1c(C(F)(F)F)[nH]c2c(O)cc3c(c12)C(CBr)CN3C(=O)c1cc2cc(NC(=O)c3cc4c(cn3)[nH]c3ccccc34)ccc2[nH]1 (centres unmarked) [Example 45, Methyl 1-bromomethyl-5-hydroxy-3-[5-[(9H-pyrido[3,4-b]indol-3-ylcarbonyl)amino]-1H-indol-2-ylcarbonyl]-7-trifluoromethyl-1,2,3,6-tetrahydropyrrolo[3,2-e]indole-8-carboxylate]",0.12
12,"COC(=O)c1c(C(F)(F)F)[nH]c2c(O)cc3c(c12)[C@H](CCl)CN3C(=O)c1cc2cc(NC(=O)OC(C)(C)C)ccc2[nH]1 [Example 64, Methyl (1S)-3-[5-(t-butoxycarbonyl)amino-1H-indol-2-ylcarbonyl]-1-chloromethyl-5-hydroxy-7-trifluoromethyl-1,2,3,6-tetrahydropyrrolo[3,2-e]indole-8-carboxylate]",3.9
13,"COC(=O)c1c(C(F)(F)F)[nH]c2c(O)cc3c(c12)[C@H](CCl)CN3C(=O)c1cc2cc(NC(=O)CN(C)C)ccc2[nH]1 [Example 65, Methyl (1S)-1-chloromethyl-3-[5 (dimethylaminomethylcarbonyl)amino-1H-indol-2-ylcarbonyl]-5-hydroxy-7-trifluoromethyl-1,2,3,6-tetrahydropyrrolo[3,2-e]indole-8-carboxylate]",0.11
14,"COC(=O)c1c(C(F)(F)F)[nH]c2c(O)cc3c(c12)[C@H](CCl)CN3C(=O)c1cc2c(OC)cccc2o1 [Example 66, Methyl (1S)-1-chloromethyl-5-hydroxy-3-(4-methoxybenzofuran-2-ylcarbonyl)-7-trifluoromethyl-1,2,3,6-tetrahydropyrrolo[3,2-e]indole-8-carboxylate]",0.77
15,"COC(=O)c1c(C(F)(F)F)[nH]c2c(O)cc3c(c12)[C@H](CCl)CN3C(=O)c1cc2cc(OC)ccc2o1 [Example 67, Methyl (1S)-1-chloromethyl-5-hydroxy-3-(5-methoxybenzofuran-2-ylcarbonyl)-7-trifluoromethyl-1,2,3,6-tetrahydropyrrolo[3,2-e]indole-8-carboxylate]",0.026
16,"COC(=O)c1c(C(F)(F)F)[nH]c2c(O)cc3c(c12)[C@H](CCl)CN3C(=O)c1cc2ccc(OC)cc2o1 [Example 68, Methyl (1S)-1-chloromethyl-5-hydroxy-3-(6-methoxybenzofuran-2-ylcarbonyl)-7-trifluoromethyl-1,2,3,6-tetrahydropyrrolo[3,2-e]indole-8-carboxylate]",0.051
17,"COC(=O)c1c(C(F)(F)F)[nH]c2c(O)cc3c(c12)[C@H](CCl)CN3C(=O)c1cc2cc(OC)c(OC)c(OC)c2o1 [Example 69, Methyl (1S)-1-chloromethyl-5-hydroxy-7-trifluoromethyl-3-(5,6,7-trimethoxybenzofuran-2-ylcarbonyl)-1,2,3,6-tetrahydropyrrolo[3,2-e]indole-8-carboxylate]",0.046
18,"COC(=O)c1c(C(F)(F)F)[nH]c2c(O)cc3c(c12)[C@H](CCl)CN3C(=O)c1cc2cccc(OC)c2o1 [Example 70, Methyl (1S)-1-chloromethyl-5-hydroxy-3-(7-methoxybenzofuran-2-ylcarbonyl)-7-trifluoromethyl-1,2,3,6-tetrahydropyrrolo[3,2-e]indole-8-carboxylate]",2
19,"COC(=O)c1c(C(F)(F)F)[nH]c2c(O)cc3c(c12)[C@H](CCl)CN3C(=O)/C=C/c1ccc(OC)cc1 [Example 74, Methyl (1S)-1-chloromethyl-5-hydroxy-3-[2-(4-methoxyphenyl)ethylene-1-ylcarbonyl]-7-trifluoromethyl-1,2,3,6-tetrahydropyrrolo[3,2-e]indole-8-carboxylate]",1.3
20,"COC(=O)c1c(C(F)(F)F)[nH]c2c1[C@@]13C[C@@H]1CN(C(=O)c1cc4cc(NC(=O)OC(C)(C)C)ccc4[nH]1)C3=CC2=O [Example 84, Methyl (7bR, 8aS)-2-[5-(t-butoxycarbonyl)amino-1H-indole-2-ylcarbonyl]-6-trifluoromethyl-1,2,8,8a-tetrahydrocyclopropa[c]pyrrolo[3,2-e]indole-4 (5H)-one-7-carboxylate]",1.7
